Converted amounts (≈) assume the structure as drawn.
Key:
[1] = tested on: Escherichia coli; test: Bactericidal activity against Escherichia coli ATCC 35210 after 72 hrs by microdilution method; format: functional
[2] = tested on: Aspergillus versicolor; test: Antifungal activity against Aspergillus versicolor ATCC 11730 after 72 hrs by microdilution method; format: functional; details: ATCC 11730, 72 h
[3] = tested on: Pseudomonas aeruginosa; test: Bactericidal activity against Pseudomonas aeruginosa ATCC 27853 after 72 hrs by microdilution method; format: functional
[4] = tested on: Escherichia coli; test: Antibacterial activity against Escherichia coli ATCC 35210 after 24 hrs by microdilution method; format: functional; details: ATCC 35210, 24 h
[5] = tested on: Aspergillus niger; test: Antifungal activity against Aspergillus niger ATCC 6275 after 72 hrs by microdilution method; format: functional; details: ATCC 6275, 72 h
[6] = tested on: Enterobacter cloacae; test: Bactericidal activity against Enterobacter cloacae ATCC 35030 isolated from human after 72 hrs by microdilution method; format: functional
[7] = tested on: Staphylococcus aureus; test: Bactericidal activity against Staphylococcus aureus ATCC 6538 after 72 hrs by microdilution method; format: functional
[8] = tested on: Listeria monocytogenes; test: Bactericidal activity against Listeria monocytogenes NCTC 7973 after 72 hrs by microdilution method; format: functional
[9] = tested on: Penicillium ochrochloron; test: Antifungal activity against Penicillium ochrochloron ATCC 9112 after 72 hrs by microdilution method; format: functional; details: ATCC 9112, 72 h
[10] = tested on: Listeria monocytogenes; test: Antibacterial activity against Listeria monocytogenes NCTC 7973 after 24 hrs by microdilution method; format: functional; details: NCTC 7973, 24 h
[11] = tested on: Candida albicans; test: Antifungal activity against Candida albicans ATCC 10231 isolated from human after 72 hrs by microdilution method; format: functional; details: ATCC 10231, 72 h
[12] = tested on: Aspergillus ochraceus; test: Antifungal activity against Aspergillus ochraceus ATCC 12066 after 72 hrs by microdilution method; format: functional; details: ATCC 12066, 72 h
[13] = tested on: Aspergillus ochraceus; test: Fungicidal activity against Aspergillus ochraceus ATCC 12066 after 72 hrs by microdilution method; format: functional
[14] = tested on: Aspergillus fumigatus; test: Fungicidal activity against Aspergillus fumigatus isolated from human after 72 hrs by microdilution method; format: functional
[15] = tested on: Trichoderma viride; test: Antifungal activity against Trichoderma viride IAM 5061 after 72 hrs by microdilution method; format: functional; details: IAM 5061, 72 h
[16] = tested on: Aspergillus versicolor; test: Fungicidal activity against Aspergillus versicolor ATCC 11730 after 72 hrs by microdilution method; format: functional
[17] = tested on: Candida albicans; test: Fungicidal activity against Candida albicans ATCC 10231 isolated from human after 72 hrs by microdilution method; format: functional
[18] = tested on: Bacillus cereus; test: Antibacterial activity against Bacillus cereus clinical isolate after 24 hrs by microdilution method; format: functional
[19] = tested on: Aspergillus niger; test: Fungicidal activity against Aspergillus niger ATCC 6275 after 72 hrs by microdilution method; format: functional
[20] = tested on: Pseudomonas aeruginosa; test: Antibacterial activity against Pseudomonas aeruginosa ATCC 27853 after 24 hrs by microdilution method; format: functional; details: ATCC 27853, 24 h
[21] = tested on: Bacillus cereus; test: Bactericidal activity against Bacillus cereus clinical isolate after 72 hrs by microdilution method; format: functional
[22] = tested on: Salmonella typhimurium; test: Antibacterial activity against Salmonella typhimurium ATCC 13311 after 24 hrs by microdilution method; format: functional, Salmonella enterica subsp. enterica serovar Typhimurium; details: Salmonella enterica, ATCC 13311, 24 h
[23] = tested on: Micrococcus flavus; test: Bactericidal activity against Micrococcus flavus ATCC 10240 after 72 hrs by microdilution method; format: functional
[24] = tested on: Salmonella typhimurium; test: Bactericidal activity against Salmonella typhimurium ATCC 13311 after 72 hrs by microdilution method; format: functional, Salmonella enterica subsp. enterica serovar Typhimurium
[25] = tested on: Enterobacter cloacae; test: Antibacterial activity against Enterobacter cloacae ATCC 35030 isolated from human after 24 hrs by microdilution method; format: functional; details: ATCC 35030, 24 h
[26] = tested on: Micrococcus flavus; test: Antibacterial activity against Micrococcus flavus ATCC 10240 after 24 hrs by microdilution method; format: functional; details: ATCC 10240, 24 h
[27] = tested on: Staphylococcus aureus; test: Antibacterial activity against Staphylococcus aureus ATCC 6538 after 24 hrs by microdilution method; format: functional; details: ATCC 6538, 24 h
[28] = tested on: Trichoderma viride; test: Fungicidal activity against Trichoderma viride IAM 5061 after 72 hrs by microdilution method; format: functional
[29] = tested on: Talaromyces funiculosus; test: Fungicidal activity against Penicillium funiculosum ATCC 36839 after 72 hrs by microdilution method; format: functional
[30] = tested on: Talaromyces funiculosus; test: Antifungal activity against Penicillium funiculosum ATCC 36839 after 72 hrs by microdilution method; format: functional; details: ATCC 36839, 72 h
[31] = tested on: Aspergillus fumigatus; test: Antifungal activity against Aspergillus fumigatus isolated from human after 72 hrs by microdilution method; format: functional
[32] = tested on: Penicillium ochrochloron; test: Fungicidal activity against Penicillium ochrochloron ATCC 9112 after 72 hrs by microdilution method; format: functional

Row | SMILES | MBC99.5 [1] | MIC [2] | MBC99.5 [3] | MIC [4] | MIC [5] | MBC99.5 [6] | MBC99.5 [7] | MBC99.5 [8] | MIC [9] | MIC [10] | MIC [11] | MIC [12] | MFC99.5 [13] | MFC99.5 [14] | MIC [15] | MFC99.5 [16] | MFC99.5 [17] | MIC [18] | MFC99.5 [19] | MIC [20] | other results
1 | CNc1nc(C)c(C2=NN(c3ccccc3)C(c3ccccc3)C2)s1 (centres undefined) | 20.1 ×10⁻² umol/ml | 143 µM (≈ 49.8 µg/mL) | 45.9 ×10⁻² umol/ml | 172 µM (≈ 59.9 µg/mL) | 143 µM (≈ 49.8 µg/mL) | 20.1 ×10⁻² umol/ml | 20.1 ×10⁻² umol/ml | 11.5 ×10⁻² umol/ml | 143 µM (≈ 49.8 µg/mL) | 57 µM (≈ 19.9 µg/mL) | 172 µM (≈ 59.9 µg/mL) | 143 µM (≈ 49.8 µg/mL) | 17.2 ×10⁻² umol/ml | 23 ×10⁻² umol/ml | 287 µM (≈ 100 µg/mL) | 23 ×10⁻² umol/ml | 23 ×10⁻² umol/ml | 230 µM (≈ 80.1 µg/mL) | 28.7 ×10⁻² umol/ml | 144 µM (≈ 50.2 µg/mL) | MBC99.5 [21]: 28.7 ×10⁻² umol/ml; MIC [22]: 172 µM (≈ 59.9 µg/mL); MBC99.5 [23]: 23 ×10⁻² umol/ml; MBC99.5 [24]: 28.7 ×10⁻² umol/ml; MIC [25]: 144 µM (≈ 50.2 µg/mL); MIC [26]: 115 µM (≈ 40.1 µg/mL); MIC [27]: 115 µM (≈ 40.1 µg/mL); MFC99.5 [28]: 40.2 ×10⁻² umol/ml; MFC99.5 [29]: 40.2 ×10⁻² umol/ml; MIC [30]: 287 µM (≈ 100 µg/mL); MIC [31]: 143 µM (≈ 49.8 µg/mL); MFC99.5 [32]: 28.7 ×10⁻² umol/ml
2 | Cc1nc(-c2ccccc2)sc1C1=NN(c2ccccc2)C(c2ccccc2)C1 (centres undefined) | 17.7 ×10⁻² umol/ml | 126 µM (≈ 49.8 µg/mL) | 25.3 ×10⁻² umol/ml | 101 µM (≈ 39.9 µg/mL) | 253 µM (≈ 100 µg/mL) | 17.7 ×10⁻² umol/ml | 20.2 ×10⁻² umol/ml | 10.1 ×10⁻² umol/ml | 253 µM (≈ 100 µg/mL) | 76 µM (≈ 30.1 µg/mL) | 253 µM (≈ 100 µg/mL) | 126 µM (≈ 49.8 µg/mL) | 20.2 ×10⁻² umol/ml | 15.2 ×10⁻² umol/ml | 126 µM (≈ 49.8 µg/mL) | 15.2 ×10⁻² umol/ml | 30.4 ×10⁻² umol/ml | 152 µM (≈ 60.1 µg/mL) | 32.2 ×10⁻² umol/ml | 152 µM (≈ 60.1 µg/mL) | MBC99.5 [21]: 30.4 ×10⁻² umol/ml; MIC [22]: 202 µM (≈ 79.9 µg/mL); MBC99.5 [23]: 20.2 ×10⁻² umol/ml; MBC99.5 [24]: 25.3 ×10⁻² umol/ml; MIC [25]: 126 µM (≈ 49.8 µg/mL); MIC [26]: 126 µM (≈ 49.8 µg/mL); MIC [27]: 126 µM (≈ 49.8 µg/mL); MFC99.5 [28]: 25.3 ×10⁻² umol/ml; MFC99.5 [29]: 32.2 ×10⁻² umol/ml; MIC [30]: 253 µM (≈ 100 µg/mL); MIC [31]: 126 µM (≈ 49.8 µg/mL); MFC99.5 [32]: 32.2 ×10⁻² umol/ml
